Measurements taken from US4055640A, “Compositions and methods for controlling the growth of bacteria, fungi and algae using certain derivatives of N-(2,2-dichlorovinyl)salicylamides” (Nippon Kayaku Co., Ltd., priority 1975, dated 1977).
In brackets after ≈: the same amount, converted by molar mass. Several values for one entry are separate records, joined by “and”; a condition that tells them apart may be missing. Equal entries are not always repeated. Structures can show the parent of a compound that is named as a salt.

What was measured:
[1] = tested on: botrytis cinerea (gray mold); test: Exterminating test on gray mold of tomato (Experimental Example 5); assay type: in vivo; design: scale not given here; conditions: 1,000 ppm, 48 hours after inoculation, kidney bean leaves
How it was run: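 Kidney bean seedlings (5-6 leaf stage) sprayed with water-diluted 80% wettable powder; leaves detached 24 h later and inoculated with B. cinerea agar disks under moist conditions. Lesion diameters measured 48 h post-inoculation to calculate an Effect Index.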

[2] = tested on: Cucumber seeds (variety: Oyashima); test: Phytotoxicity on cucumber seeds (Experimental Example 7); assay type: in vivo
Cladosporium cucumerinum = test: Exterminating test for seed treatment (Experimental Example 7); assay type: in vivo
Description: Exterminating test for seed treatment. Cucumber seeds (variety: Oyashima) were dipped in the spores suspension of Cladosporium cucumerinum and dried. After 1 day, the seeds were dressed with 80% wettable powder of the present invention. On the other hand, other seeds were dipped in the solution of 80% wettable powder of the present invention. Five (5) seeds treated by either dressing or dipping were placed on each potato dextrose agar plate. After 10 days after the treatment, degrees attacked by the pathogen were observed and the results were shown with an "Effective Index". An "Effective Index" was calculated as follows: [formula]

[3] = tested on: cucumber seedlings (variety: Sagamihanjiro); test: Phytotoxicity on cucumber seedlings (Experimental Example 2); assay type: in vivo; conditions: 500 ppm
How it was run: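 Cucumber seedlings at the 3–4 leaf stage sprayed with water-diluted 80% wettable powder, then spray-inoculated with Cladosporium cucumerinum spores 24 h later. Plants held 24 h in a moist chamber at 20° C, then kept in a greenhouse at 20° C.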

[4] = tested on: Rhizoctonia solani (damping-off of cucumber); test: Exterminating test on damping-off of cucumber (Experimental Example 3); assay type: in vivo; conditions: Rhizoctonia solani, soil, 240 h, 1,000 ppm, soil drench 50 ml per pot, 10 days; read-out: Percentage of healthy seedlings
How it was run: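 Percentage of healthy seedlings was scored 10 days post inoculation, with PCNB 50% wettable powder run alongside as reference. Each pot held 10 Azumamidori cucumber seeds in field soil carrying 5 g Rhizoctonia solani. Soil drench: 50 ml water suspension of 80% wettable powder; greenhouse.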

[5] = tested on: Cladosporium cucumerinum (cucumber scab); test: Exterminating test on cucumber scab (Experimental Example 2); assay type: in vivo; design: scale not given here; conditions: 500 ppm, 5 days after inoculation
How it was run: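 Potted cucumber seedlings (cv. Sagamihanjiro, 3–4 leaf stage) were sprayed with an aqueous suspension of 80% wettable powder, then spray-inoculated with Cladosporium cucumerinum spores 24 h later. Plants were held 24 h in a moist chamber at 20° C, then in a greenhouse at 20° C. Infected Index was scored 5 days after inoculation from leaf counts by attack severity.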

[6] = tested on: seedlings of kidney beans (variety: Orient); test: Phytotoxicity on kidney beans (Experimental Example 5); assay type: in vivo; conditions: 1,000 ppm
[7] = tested on: seedling blight of rice plant (pathogen Fusarium sp. and Rhizoctonia sp.); test: Exterminating test on seedling blight of rice plant (Experimental Example 1); assay type: in vivo; conditions: soil, 408 h, 0.25g/box a.i., 5% dust mixed with soil; read-out: Percentage of healthy seedlings
How it was run: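 Pathogen-contaminated nursery soil (Fusarium sp., Rhizoctonia sp.) mixed with 5% compound dust at 5 g per box; Nihonbare rice sown, grown 7 days at 17° C in lighting chamber, then moved to field. Assessed 10 days later as percentage of healthy seedlings; commercial 4% hydroxyisoxazol dust run as control.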

Staphylococcus aureus = test: Minimum inhibitory concentration, dilution methods (Example 14); assay type: cell-based; conditions: for minimum inhibitory concentration: (1) potato-dextrose agar dilution method; for MIC: Staphylococcus aureus
Description: (§1) Bacteriocidal activity and fungicidal activity of the active compounds of the present invention were examined by potato-dextrose agar dilution method, [2] waxman's liquid medium dilution method or [3] glucose bouillon medium dilution method. The results are shown in Table 4 below as the minimum inhibitory concentration (the minimum concentration of active compound found to produce 100% control of the test bacteria and fungi).

Aspergillus niger = test: as above; assay type: cell-based
Description: as §1

Bacillus subtilis = test: as above; assay type: cell-based; conditions: Bacillus subtilis
Description: as §1

Penicillium Citrinum = test: as above; assay type: cell-based; conditions: for MIC: Penicillium citrinum
Description: as §1

Cladosporium harbarum = test: as above; assay type: cell-based; conditions: for minimum inhibitory concentration: (1) potato-dextrose agar dilution method
Description: as §1

Escherichia coli = test: as above; assay type: cell-based; conditions: Escherichia coli
Description: as §1

[8] = (2) waxman's liquid medium dilution method
[9] = (1) potato-dextrose agar dilution method
[10] = (3) glucose bouillon medium dilution method

**Q.** `CC(=O)Oc1ccccc1C(=O)NC=C(Cl)Cl` [Compound No. 6, O-acetyl-N-(2,2-dichlorovinyl) salicylamide] was tested. Which “Effect Index” value [1] did it give?
**A.** 75

**Q.** And the Phytotoxicity ([2]; dipped, 5,000 ppm (30 min.))?
**A.** Nil

**Q.** And the Phytotoxicity ([2]; dressed, 1 %)?
**A.** Nil

**Q.** What about the “Effective Index” value (Cladosporium cucumerinum; dipped, 5,000 ppm (30 min.)) of the same compound?
**A.** 88 and 81

**Q.** And the “Effective Index” value (Cladosporium cucumerinum; dressed, 1 %)?
**A.** 95

**Q.** What about the Phytotoxicity [3] of the same compound?
**A.** Nil

**Q.** And the pest or weed control at 1000 ppm [4]?
**A.** 100%

**Q.** And the “Infected Index” value [5]?
**A.** 8.2

**Q.** And the Phytotoxicity [6]?
**A.** Nil

**Q.** And the Percentage of healthy seedlings at 0.25 g/box [7]?
**A.** 83.2%

**Q.** With `O=C(NC=C(Cl)Cl)c1ccccc1O` [Compound No. 1, N-(β,β-dichlorovinyl) salicylamide] as the compound, how does the “Effect Index” value [1] read?
**A.** 84

**Q.** And the minimum inhibitory concentration (Staphylococcus aureus)?
**A.** 2.5 mc g/ml

**Q.** What about the MIC (Staphylococcus aureus; [8]) of the same compound?
**A.** 2.5 µg/mL (≈ 10.8 µM)

**Q.** What about the minimum inhibitory concentration (Aspergillus niger; [8]) of the same compound?
**A.** 10 mc g/ml

**Q.** What about the MIC (Aspergillus niger; Aspergillus niger, (1) potato-dextrose agar dilution method) of the same compound?
**A.** 10 µg/mL (≈ 43.1 µM)

**Q.** What about the MIC (Bacillus subtilis; [9]) of the same compound?
**A.** 2.5 µg/mL (≈ 10.8 µM)

**Q.** And the MIC (Bacillus subtilis; [8])?
**A.** 5 µg/mL (≈ 21.5 µM)

**Q.** What about the MIC (Penicillium Citrinum; [9]) of the same compound?
**A.** 10 µg/mL (≈ 43.1 µM)

**Q.** What about the MIC (Penicillium Citrinum; [8]) of the same compound?
**A.** 20 µg/mL (≈ 86.2 µM)

**Q.** And the minimum inhibitory concentration (Cladosporium harbarum)?
**A.** 10 mc g/ml

**Q.** And the MIC (Cladosporium harbarum; Cladosporium, (2) waxman's liquid medium dilution method)?
**A.** 5 µg/mL (≈ 21.5 µM)

**Q.** And the MIC (Escherichia coli; [9])?
**A.** 80 µg/mL (≈ 345 µM)

**Q.** What about the MIC (Escherichia coli; [8]) of the same compound?
**A.** 80 µg/mL (≈ 345 µM)

**Q.** What about the Phytotoxicity ([2]; dipped, 5,000 ppm (30 min.)) of the same compound?
**A.** Nil

**Q.** And the Phytotoxicity ([2]; dressed, 1 %)?
**A.** Nil

**Q.** What about the “Effective Index” value (Cladosporium cucumerinum; dipped, 5,000 ppm (30 min.)) of the same compound?
**A.** 69

**Q.** What about the “Effective Index” value (Cladosporium cucumerinum; dressed, 1 %) of the same compound?
**A.** 87

**Q.** What about the Phytotoxicity [3] of the same compound?
**A.** Nil

**Q.** What about the pest or weed control at 1000 ppm [4] of the same compound?
**A.** 100%

**Q.** And the “Infected Index” value [5]?
**A.** 9.4

**Q.** And the Phytotoxicity [6]?
**A.** Nil

**Q.** And the Percentage of healthy seedlings at 0.25 g/box [7]?
**A.** 80.2%

**Q.** How did the “Effect Index” value [1] turn out when `O=C(NC=C(Cl)Cl)c1ccccc1O` [Compound No. 20, sodium salt of N-(β,β-dichlorovinyl) salicylamide] was run?
**A.** 85

**Q.** And the minimum inhibitory concentration (Staphylococcus aureus)?
**A.** 6 mc g/ml

**Q.** What about the MIC (Staphylococcus aureus; [10]) of the same compound?
**A.** 5 µg/mL

**Q.** And the minimum inhibitory concentration (Aspergillus niger; [9])?
**A.** 10 mc g/ml

**Q.** And the MIC (Bacillus subtilis; [10])?
**A.** 5 µg/mL

**Q.** And the minimum inhibitory concentration (Penicillium Citrinum; [9])?
**A.** 10 mc g/ml

**Q.** What about the minimum inhibitory concentration (Cladosporium harbarum) of the same compound?
**A.** 2.5 mc g/ml

**Q.** What about the MIC (Escherichia coli; [10]) of the same compound?
**A.** 60 µg/mL

**Q.** And the Phytotoxicity ([2]; dressed, 1 %)?
**A.** Nil

**Q.** And the “Effective Index” value (Cladosporium cucumerinum; dressed, 1 %)?
**A.** 90

**Q.** And the Phytotoxicity [3]?
**A.** Nil

**Q.** And the “Infected Index” value [5]?
**A.** 13.7

**Q.** And the Phytotoxicity [6]?
**A.** Nil
